Columns and labels:
Format in all cases: ADME
CYP2A6 [1] = biological target: T1, CYP2A6 (Homo sapiens, UniProt P11509); assay: Inhibition of CYP2A6 in human liver microsomes assessed as enzyme-mediated metabolite formation at 0.1 uM using coumarin as substrate incubated for 5 mins followed by NADPH addition measured after 30 mins by LC-MS/MS analysis relative to control; set-up: scale not given: the % may be the effect or the level left; settings: probe coumarin, read-out: Activity
T1 sequence (P11509 whole entry): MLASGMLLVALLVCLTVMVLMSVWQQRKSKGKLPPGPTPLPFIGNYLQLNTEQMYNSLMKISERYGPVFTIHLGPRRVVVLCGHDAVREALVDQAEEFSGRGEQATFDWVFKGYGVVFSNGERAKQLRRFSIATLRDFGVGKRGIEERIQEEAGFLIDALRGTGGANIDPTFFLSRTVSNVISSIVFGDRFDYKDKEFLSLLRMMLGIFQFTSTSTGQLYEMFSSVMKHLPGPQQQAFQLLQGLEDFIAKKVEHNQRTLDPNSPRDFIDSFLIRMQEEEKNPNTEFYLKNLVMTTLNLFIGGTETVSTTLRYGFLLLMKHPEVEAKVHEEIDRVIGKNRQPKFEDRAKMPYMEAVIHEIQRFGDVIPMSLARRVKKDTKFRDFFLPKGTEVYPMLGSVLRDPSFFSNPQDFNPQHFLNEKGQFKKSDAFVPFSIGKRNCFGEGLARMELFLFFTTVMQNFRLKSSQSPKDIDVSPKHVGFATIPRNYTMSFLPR

CYP2A6 [2] = biological target: T1, CYP2A6; assay: Inhibition of CYP2A6 in human liver microsomes assessed as enzyme-mediated metabolite formation at 1 uM using coumarin as substrate incubated for 5 mins followed by NADPH addition measured after 30 mins by LC-MS/MS analysis relative to control; set-up: scale not given: the % may be the effect or the level left; settings: probe coumarin, read-out: Activity
Cytochrome P450 2B6 = biological target: T2, Cytochrome P450 2B6 (Homo sapiens, UniProt P20813); assay: Inhibition of CYP2B6 in human liver microsomes assessed as enzyme-mediated metabolite formation using bupropion as substrate incubated for 5 mins followed by NADPH addition measured after 30 mins by LC-MS/MS analysis
T2 sequence (P20813 whole entry): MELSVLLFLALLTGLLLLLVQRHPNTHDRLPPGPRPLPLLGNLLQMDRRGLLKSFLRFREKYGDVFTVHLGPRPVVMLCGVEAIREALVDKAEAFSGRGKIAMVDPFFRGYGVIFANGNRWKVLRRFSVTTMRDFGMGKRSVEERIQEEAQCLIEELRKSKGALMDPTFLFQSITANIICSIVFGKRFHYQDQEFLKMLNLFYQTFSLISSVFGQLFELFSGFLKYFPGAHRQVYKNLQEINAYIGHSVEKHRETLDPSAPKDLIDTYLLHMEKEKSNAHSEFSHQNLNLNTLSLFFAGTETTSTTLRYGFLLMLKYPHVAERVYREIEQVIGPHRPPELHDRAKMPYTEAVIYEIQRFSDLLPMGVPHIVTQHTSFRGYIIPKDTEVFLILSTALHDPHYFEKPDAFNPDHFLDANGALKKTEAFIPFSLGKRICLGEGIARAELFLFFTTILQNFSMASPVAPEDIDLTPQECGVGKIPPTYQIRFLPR

CYP2C8 [3] = biological target: T3, CYP2C8 (Homo sapiens, UniProt P10632); assay: Inhibition of CYP2C8 in human liver microsomes assessed as enzyme-mediated metabolite formation at 1 uM using paclitaxel as substrate incubated for 5 mins followed by NADPH addition measured after 30 mins by LC-MS/MS analysis relative to control; set-up: scale not given: the % may be the effect or the level left; settings: probe paclitaxel, read-out: Activity
T3 sequence (P10632 whole entry): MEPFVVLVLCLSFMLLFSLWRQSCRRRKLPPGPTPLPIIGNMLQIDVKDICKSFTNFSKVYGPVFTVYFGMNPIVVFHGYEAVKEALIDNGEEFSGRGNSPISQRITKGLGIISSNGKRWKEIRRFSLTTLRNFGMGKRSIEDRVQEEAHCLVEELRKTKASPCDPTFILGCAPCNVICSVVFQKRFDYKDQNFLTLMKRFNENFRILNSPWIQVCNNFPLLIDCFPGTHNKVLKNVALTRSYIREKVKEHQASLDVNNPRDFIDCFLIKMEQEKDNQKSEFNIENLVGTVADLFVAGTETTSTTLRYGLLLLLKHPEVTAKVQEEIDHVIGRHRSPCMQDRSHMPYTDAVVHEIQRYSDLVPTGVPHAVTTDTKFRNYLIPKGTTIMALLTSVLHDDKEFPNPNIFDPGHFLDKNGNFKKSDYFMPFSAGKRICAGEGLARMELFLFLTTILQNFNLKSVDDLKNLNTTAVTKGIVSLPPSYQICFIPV

CYP2C8 [4] = biological target: T3, CYP2C8; assay: Inhibition of CYP2C8 in human liver microsomes assessed as enzyme-mediated metabolite formation at 10 uM using paclitaxel as substrate incubated for 5 mins followed by NADPH addition measured after 30 mins by LC-MS/MS analysis relative to control; set-up: scale not given: the % may be the effect or the level left; settings: probe paclitaxel, read-out: Activity
CYP2C19 = CYP2C19 (Homo sapiens, UniProt P33261); assay: Inhibition of CYP2C19 in human liver microsomes assessed as enzyme-mediated metabolite formation at 0.3 uM using (S)-mephenytoin as substrate incubated for 5 mins followed by NADPH addition measured after 30 mins by LC-MS/MS analysis relative to control; set-up: scale not given: the % may be the effect or the level left; settings: probe (S)-mephenytoin, read-out: Activity
CYP2D6 = CYP2D6 (Homo sapiens, UniProt P10635); assay: Inhibition of CYP2D6 in human liver microsomes assessed as enzyme-mediated metabolite formation at 0.1 uM using dextromethorphan as substrate incubated for 5 mins followed by NADPH addition measured after 30 mins by LC-MS/MS analysis relative to control; set-up: scale not given: the % may be the effect or the level left; settings: probe dextromethorphan, read-out: Activity
Cytochrome P450 1A2 [5] = biological target: T4, Cytochrome P450 1A2 (Homo sapiens, UniProt P05177); assay: Inhibition of CYP1A2 in human liver microsomes using phenacetin as substrate preincubated for 20 mins followed by substrate addition measured after 30 mins in presence of NADPH by LC-MS/MS analysis
T4 sequence (P05177 whole entry): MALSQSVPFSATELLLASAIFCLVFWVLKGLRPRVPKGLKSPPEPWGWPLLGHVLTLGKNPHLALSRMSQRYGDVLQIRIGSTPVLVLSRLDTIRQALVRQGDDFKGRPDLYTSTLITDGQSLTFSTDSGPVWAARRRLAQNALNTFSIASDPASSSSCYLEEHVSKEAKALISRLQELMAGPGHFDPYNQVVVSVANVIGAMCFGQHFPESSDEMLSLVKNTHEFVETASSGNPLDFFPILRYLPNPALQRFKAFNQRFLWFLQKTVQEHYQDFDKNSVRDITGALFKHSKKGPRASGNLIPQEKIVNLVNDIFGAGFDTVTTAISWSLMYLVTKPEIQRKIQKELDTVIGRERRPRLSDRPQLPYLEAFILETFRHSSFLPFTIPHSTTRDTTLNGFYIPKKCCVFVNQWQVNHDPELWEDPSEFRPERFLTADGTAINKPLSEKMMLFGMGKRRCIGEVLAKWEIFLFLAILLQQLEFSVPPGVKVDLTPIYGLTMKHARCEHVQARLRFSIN

Cytochrome P450 1A2 [6] = biological target: T4, Cytochrome P450 1A2; assay: Inhibition of human CYP1A2 using phenacetin as substrate incubated for 5 mins followed by NADPH addition measured after 30 mins by LC-MS/MS analysis

CYP2D6, sequence (P10635 whole entry): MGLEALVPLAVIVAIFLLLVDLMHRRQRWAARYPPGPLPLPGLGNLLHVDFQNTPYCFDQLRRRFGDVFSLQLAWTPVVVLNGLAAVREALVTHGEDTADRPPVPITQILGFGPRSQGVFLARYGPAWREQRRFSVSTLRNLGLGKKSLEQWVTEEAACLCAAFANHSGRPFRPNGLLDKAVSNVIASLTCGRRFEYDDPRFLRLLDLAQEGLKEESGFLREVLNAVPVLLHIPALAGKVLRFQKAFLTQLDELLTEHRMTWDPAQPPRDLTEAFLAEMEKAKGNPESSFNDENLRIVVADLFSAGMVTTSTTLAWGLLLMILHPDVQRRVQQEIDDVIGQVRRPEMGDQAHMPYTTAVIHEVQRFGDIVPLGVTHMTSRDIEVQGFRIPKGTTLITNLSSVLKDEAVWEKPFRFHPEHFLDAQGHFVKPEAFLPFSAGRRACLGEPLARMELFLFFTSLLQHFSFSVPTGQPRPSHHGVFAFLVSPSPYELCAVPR
CYP2C19, sequence (P33261 whole entry): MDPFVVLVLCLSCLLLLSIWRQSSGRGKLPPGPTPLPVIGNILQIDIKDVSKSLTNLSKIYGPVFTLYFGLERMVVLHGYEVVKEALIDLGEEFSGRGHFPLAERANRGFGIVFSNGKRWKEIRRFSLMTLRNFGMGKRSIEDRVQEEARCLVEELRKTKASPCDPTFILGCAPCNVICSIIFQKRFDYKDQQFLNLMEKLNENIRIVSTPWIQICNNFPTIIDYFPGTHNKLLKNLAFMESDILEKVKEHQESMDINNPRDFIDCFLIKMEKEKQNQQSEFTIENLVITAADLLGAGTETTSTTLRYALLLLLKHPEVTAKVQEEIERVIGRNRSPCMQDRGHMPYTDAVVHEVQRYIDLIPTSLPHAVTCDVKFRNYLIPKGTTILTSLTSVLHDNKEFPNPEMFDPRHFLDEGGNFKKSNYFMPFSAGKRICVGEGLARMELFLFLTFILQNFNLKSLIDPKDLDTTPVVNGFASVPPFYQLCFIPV

CCCCCCCC(=O)CCc1ccc(O)c(OC)c1
activity at 0.5 h, 0.1 µM (CYP2A6 [1]): 103% | activity at 0.5 h, 1 µM (CYP2A6 [2]): 83.6% | IC50 (Cytochrome P450 2B6): 15.4 µM | activity at 0.5 h, 1 µM (CYP2C8 [3]): 68.7% | activity at 0.5 h, 10 µM (CYP2C8 [4]): 45.5% | activity at 0.5 h, 0.3 µM (CYP2C19): 85.8% | activity at 0.5 h, 0.1 µM (CYP2D6): 112% | IC50 (Cytochrome P450 1A2 [5]): 19.6 µM | IC50 (Cytochrome P450 1A2 [6]): 21.4 µM | inhibition (INH) (Cytochrome P450 1A2 [6]; human, 0.5 h): Dose-dependent effect
